17 compounds from PubChem BioAssay (NCI) can be followed below.

Structures are written as SMILES.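 Step 1: Grow cells in 96-well plates. Step 2: Expose to compound for 48 hours at 5 concentrations. Step 3: Interpolate endpoints linearly; if unreached, use highest concentration. Here, GI50 denotes the concentration required for 50% inhibition of growth. TGI marks complete inhibition of growth.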

Assay in all cases: NCI anticancer screen, dose series, 48 h
Test [1] relates to MDA-MB-435.
For test [2], the system named is MOLT-4 leukemia.
The subject of test [3] is NCI-H522 lung.
Test [4] deals with OVCAR-3 ovarian.
The subject of test [5] is OVCAR-4 ovarian.
The test system of test [6] is OVCAR-8 ovarian.
Test [7] relates to PC-3 prostate.
Test [8] concerns SK-OV-3 ovarian.
The test system of test [9] is SN12C renal.
Test [10] concerns TK-10 renal.

For `Cc1ccccc1-n1c(/C=C\c2ccccn2)nc2ccccc2c1=O`, the GI50 in test [1] was 8.23 µM; in test [2] it was 6.16 µM; in [3], 5.7 µM; in test [4], 6.75 µM; in test [5] it was 18.1 µM; in [6] it was 21.4 µM. For the same compound, the GI50 in test [7] was 6.41 µM; in [8], 35.3 µM; in test [9], 21.2 µM; in test [10] it was 32.6 µM. Moreover, the TGI in test [1] is 53 µM; in [2], 27.7 µM; in test [3], 39.1 µM; in test [4] it was 53.6 µM; in test [5], above 100 µM; in [6] it was above 100 µM. Moreover, the TGI in test [7] was 65.4 µM; in [8], above 100 µM; in test [9], above 100 µM; in test [10], above 100 µM.
Take `CC1CCCN(CC(O)CN2CCCc3ccccc32)C1` (configuration not stated): the TGI in test [1], in [2], in [3], in test [4], in test [5] and in test [6] was above 100 µM each time. Also, the TGI in test [7], in test [8], in [9] and in test [10] was above 100 µM each time.
Turning to `COc1ccc2c(c1OC)-c1c(c3ccc([N+](=O)[O-])cc3c(=O)n1CCCN=[N+]=[N-])C2=O`, the GI50 was 72.4 µM in [1]; 3.12 µM in test [2]; 3 µM in test [3]; 56.1 µM in [4]; above 100 µM in test [5]; 21 µM in test [6]. Besides, the GI50 in test [7] was 22 µM; in test [8] it was 19.4 µM; in test [9] it was 11.5 µM; in test [10], above 100 µM. Also, the TGI was above 100 µM in [1]; above 100 µM in test [2]; 51.7 µM in test [3]; above 100 µM in test [4]; above 100 µM in [5]; above 100 µM in test [6]. For the same compound, the TGI in [7], in test [8], in test [9] and in test [10] was above 100 µM throughout.
As for `O=C(O)c1ccc(S(=O)(=O)N=Nc2c(O)[nH]c3ccccc23)cc1`, the TGI in test [1], in [2], in test [3], in [4], in test [5] and in [6] was above 100 µM throughout. The TGI in [7], in [8], in [9] and in test [10] was above 100 µM in each case.
`COc1cc(/C=C2\CC3C4CC=C5C[C@@H](N6CCCC6)CC[C@]5(C)C4CC[C@]3(C)[C@H]2OC(C)=O)ccc1OCCN1CCCCC1` (some centres not stated): the GI50 was 1.83 µM in [1]; 0.036 µM in test [2]; 1.67 µM in test [3]; 1.64 µM in [4]; 3.03 µM in test [5]; 1.8 µM in [6]. The GI50 in [7] is 1.54 µM; in test [8], 2.15 µM; in test [9], 0.775 µM; in test [10] it was 0.211 µM. Moreover, the TGI is 3.44 µM in [1]; 0.638 µM in test [2]; 3.24 µM in [3]; 3.34 µM in [4]; 8.98 µM in test [5]; 3.42 µM in test [6]. Further, the TGI in test [7] came out at 3.72 µM; in test [8] it was 4.39 µM; in test [9], 2.56 µM; in test [10] it was 1.49 µM.
In the case of `O=C(Nc1cccc2cccnc12)c1ccc(N2C(=O)[C@@H]3[C@H](C2=O)[C@@H]2C=C[C@H]3C2)cc1`, the GI50 is 32.1 µM in [1]; 22.1 µM in test [2]; 18.4 µM in [3]; 20.7 µM in test [4]; 3.26 µM in test [5]; 26 µM in test [6]. Further, the GI50 in test [7] is 25.1 µM; in test [8], above 62.4 µM; in [9] it was 28.7 µM; in test [10], 4.13 µM. In addition, the TGI in [1] is above 100 µM; in test [2] it was above 66.6 µM; in test [3], 54.4 µM; in [4] it was above 100 µM; in test [5], 48.6 µM; in test [6] it was above 100 µM. Moreover, the TGI in [7], in test [8], in [9] and in [10] was above 100 µM each time.
In the case of `CCn1c(-c2nonc2N)nc2c(C#CC(C)(C)O)nc(O[C@@H](CN)c3ccccc3)cc21`, the GI50 is 0.365 µM in test [1]; 0.11 µM in test [2]; 0.0919 µM in [3]; 0.0845 µM in [4]; 0.447 µM in test [5]; 0.244 µM in [6]. For the same compound, the GI50 in test [7] was 0.0858 µM; in test [8] it was 0.073 µM; in test [9], 0.208 µM; in test [10], 0.164 µM. Besides, the TGI in test [1] stood at 2.99 µM; in test [2] it was 1.97 µM; in test [3], 0.353 µM; in test [4] it was 0.314 µM; in test [5] it was 4.63 µM; in [6] it was 2.59 µM. Also, the TGI was 9.94 µM in [7], 4.57 µM in [8], 2.82 µM in [9] and 1.66 µM in test [10].
For `COc1ccc(NC(=O)c2sc3nc(C)c(C(O)c4ccc(OC)cc4)cc3c2N)cc1` (configuration not stated), the GI50 is 0.121 µM in test [1]; 2.17 µM in test [2]; 1.27 µM in test [3]; 0.365 µM in test [4]; 5.12 µM in test [5]; 1.79 µM in test [6]. The GI50 in test [7] is 1.89 µM; in test [8] it was 1.89 µM; in test [9], 2.25 µM; in [10] it was 17.1 µM. For the same compound, the TGI in test [1] was 0.387 µM; in test [2] it was above 50 µM; in test [3] it was above 50 µM; in test [4], 5.31 µM; in [5], above 50 µM; in test [6], above 50 µM. Also, the TGI in [7], in [8], in [9] and in [10] was above 50 µM in each case.
As to `BrC(Br)(Br)c1cnc2ccccc2n1`, the GI50 in test [1] is 2.14 µM; in test [2] it was 2.46 µM; in [3], 0.544 µM; in [4], 1.5 µM; in [5], 1.46 µM; in test [6] it was 1.76 µM. Also, the GI50 in [7] was 2.44 µM; in test [8], 3.38 µM; in test [9] it was 3.71 µM; in [10] it was 1.55 µM. In addition, the TGI in [1] worked out at 6.29 µM; in test [2] it was 8.54 µM; in [3], 1.28 µM; in [4], 3.04 µM; in test [5], 3.98 µM; in [6], 4.07 µM. For the same compound, the TGI was determined as 9.89 µM in [7], 13.6 µM in test [8], 14.1 µM in test [9] and 3.02 µM in test [10].
Regarding `COc1cc(OC)c(OC)cc1/C=C1\C=Cc2ccccc21`, the TGI was 14.5 µM in test [1]; 44.4 µM in test [2]; 51.2 µM in test [3]; above 100 µM in test [6]; above 100 µM in test [7]; 59.8 µM in [8]. In addition, the TGI in test [9] came to 36.7 µM; in test [10] it was 80 µM.
For the compound `COc1ccc(OC)c(-c2cc(-c3ccccc3)nn2-c2ccc(S(N)(=O)=O)cc2)c1`, the GI50 in test [1] is 6.73 µM; in [2], 6.44 µM; in [3], 8.04 µM; in test [4] it was 5.91 µM; in [6] it was 10.2 µM; in test [7], 12.2 µM. In addition, the GI50 in test [9] is 12.5 µM; in test [10], 12.7 µM. In addition, the TGI in test [1] is 24.8 µM; in [2], above 100 µM; in test [3] it was 30 µM; in test [4], 19 µM; in [6] it was 27 µM; in [7], 28 µM. Besides, the TGI in test [9] turned out to be 25 µM; in [10], 26 µM.
For `c1ccc2cc(OCC3CO3)c(OCC3CO3)cc2c1` (configuration not stated), the TGI in [1] was 21.7 µM; in [2] it was 16.5 µM; in test [3] it was 5.79 µM; in [4] it was 27.9 µM; in test [6] it was 12.2 µM; in test [7], 32.1 µM. In addition, the results for the TGI in [8], in [9] and in test [10] were 22.3 µM, 15 µM and 49.2 µM, respectively.
Take `CN(C)CCOc1nc2c3cccnc3cc(-c3cccc(Cl)c3)c2c2ncccc12`: the GI50 in [1] is 1.5 µM; in test [2], 0.488 µM; in test [3] it was 1.47 µM; in [4], 1.52 µM; in test [5], 1.3 µM; in test [7], 2.17 µM. Moreover, the GI50 in [8] was 5.05 µM; in test [9], 1.51 µM; in [10] it was 1.52 µM. Also, the TGI in test [1] was 2.93 µM; in test [2], 2.41 µM; in [3], 3.06 µM; in [4], 4.19 µM; in [5] it was 3.19 µM; in test [7] it was 5.95 µM. For the same compound, the TGI is 18.4 µM in [8], 7.03 µM in [9] and 4.04 µM in test [10].
`CC(F)(F)c1cc(F)ccc1-c1sc2cc(O)ccc2c1Oc1ccc(/C=C/C(=O)O)cc1`: the GI50 is 2.23 µM in test [1]; 10.3 µM in test [2]; 6.23 µM in test [3]; 8.81 µM in test [4]; 12.1 µM in test [5]; 12.2 µM in test [6]. Besides, the GI50 was 7.7 µM in [7], 14 µM in [9] and 22 µM in test [10]. Further, the TGI in test [1] was found to be 5.51 µM; in test [2], 50 µM; in test [3] it was 29 µM; in test [4], 20.9 µM; in [5], 33.2 µM; in test [6] it was 69.1 µM. Also, the TGI is 24.7 µM in test [7], 46 µM in [9] and above 100 µM in test [10].
On to `O=C(O)C(Br)C(Br)c1ccccc1[N+](=O)[O-]` (configuration not stated), for which the TGI in [1], in [3], in [4], in test [5], in test [6] and in [7] was above 100 µM in each case. Besides, the TGI in test [8], in [9] and in test [10] was above 100 µM each time.
For the compound `Oc1ccc(Br)cc1/C=N/NC(=S)NC12CC3CC(CC(C3)C1)C2`, the GI50 is 1.98 µM in [1]; 1.89 µM in test [2]; 4.78 µM in test [3]; 1.67 µM in test [4]; 1.25 µM in test [5]; 1.6 µM in [6]. The GI50 in test [7] was 1.64 µM; in test [8], 3.54 µM; in test [9], 1.63 µM. In addition, the TGI in test [1] worked out at 5.45 µM; in test [2], 6.81 µM; in [3], 16.1 µM; in [4], 3.71 µM; in test [5], 4.09 µM; in test [6], 4.4 µM. In addition, the TGI in test [7] is 4.94 µM; in test [8], 11.9 µM; in test [9] it was 3.18 µM.
As for `CCOC(=O)c1cc2cc(NC(=O)c3cc4cc([N+](=O)[O-])ccc4n3C)ccc2n1C`, the GI50 is 60.9 µM in [1]; 30.9 µM in [2]; above 100 µM in test [3]; 31.7 µM in test [4]; 49.5 µM in test [6]; 22.6 µM in test [7]. The GI50 in test [9] was 16.3 µM; in test [10], 19.7 µM. The TGI in test [1] was above 100 µM; in test [2] it was above 100 µM; in test [3], above 100 µM; in test [4], above 100 µM; in [6], above 100 µM; in test [7], 52.9 µM. The TGI in [9] was found to be 46.5 µM; in [10], 70.7 µM.
